Reference: US10590064B2, “Crystals of alanine N-acetic acid precursors, process to prepare them and their use” (NOURYON CHEMICALS INTERNATIONAL B.V., priority 2014, dated 2020)

Columns and labels:
Format in all cases: physicochemical
pH of 1 wt % in water = assay: pH of 1 wt % in water
Experimental: Additionally the pH was measured as 1 wt % D,L-alanine diacetonitrile in water and this pH was compared to the pH of 1 wt % […].

[1] = Solubility of D,L-alanine diacetonitrile crystals in demi-water at various temperatures; conditions: overnight
Experimental: (§1) The solubility of D,L-alanine diacetonitrile was determined at various temperatures to get a clear understanding of the solubility and stability of D,L-alanine diacetonitrile. The D,L-alanine diacetonitrile crystals obtained in Example 1 were added to demi-water and the samples in well-closed bottles were placed in ovens/refrigerators at various temperatures overnight.

[2] = Stability (hydrolysis) of D,L-alanine diacetonitrile in water, aqueous layers analyzed by NMR; conditions: demi-water, closed bottles, overnight at various temperatures
Experimental: as §1

CC(C(=O)[O-])N(CC#N)CC#N.[Na+] (racemic) [D,L-alanine diacetonitrile-Na, sodium salt of D,L-alanine diacetonitrile]
pH (1% in water) (pH of 1 wt % in water): pH = 3.3.

D,L-alanine diacetonitrile
Solubility, wt % D,L-alanine diacetonitrile ([1]; 0° C.): 6 wt %
Solubility, wt % D,L-alanine diacetonitrile ([1]; 5° C.): 7.9 wt %
Solubility, wt % D,L-alanine diacetonitrile ([1]; 20° C.): 40.7 wt %
Solubility, wt % D,L-alanine diacetonitrile ([1]; 30° C.): 75 wt %
Solubility, wt % D,L-alanine diacetonitrile ([1]; 40° C.): 82.5 wt %
Solubility, wt % D,L-alanine diacetonitrile ([1]; 50° C.): 95 wt %
Hydrolysis of D,L-alanine diacetonitrile in aqueous layer (NMR) [2]: no or very little hydrolysis took place
pH (1% in water) (pH of 1 wt % in water): pH = 2.2
